In US6083977A, “Trienoic retinoid compounds and methods” (Ligand Pharmaceuticals Incorporated, priority 1995, dated 2000):
One block for each compound: values may come before it.

Legend:
[1] = test system: RARs or RXRs; test: Co-transfection assay, RAR and RXR receptors; type: cell-based; conditions: for potency profile compared to 9-cis retinoic acid (in words): relative to 9-cis
Description: (§1) Utilizing the "cis-trans" or "co-transfection" assay described by Evans et al., Science, 240:889-95 (May 13, 1988), the disclosure of which is herein incorporated by reference, the retinoid compounds of the present invention were tested and found to have strong, specific activity as either selective RAR agonists, selective RXR agonists, or as pan-agonist activators of both RAR and RXR receptors. This assay is described in further detail in U.S. Pat. Nos. 4,981,784 and 5,071,773, the disclosures of which are incorporated herein by reference.
(§2) The co-transfection assay provides a method for identifying functional agonists which mimic, or antagonists which inhibit, the effect of native hormones, and quantifying their activity for responsive IR proteins. In this regard, the co-transfection assay mimics an in vivo system in the laboratory. Importantly, activity in the co-transfection assay correlates very well with known in vivo activity, such that the co-transfection assay functions as a qualitative and quantitative predictor of a tested compounds in vivo pharmacology. See, e.g., T. Berger et al. 41 J. Steroid Biochem. Molec. Biol. 773 (1992), the disclosure of which is herein incorporated by reference.
(§3) In the co-transfection assay, a cloned cDNA for an IR (e.g., human RARα, RARβ, RXRγ) under the control of a constitutive promoter (e.g., the SV 40 promoter) is introduced by transfection (a procedure to induce cells to take up foreign genes) into a background cell substantially devoid of endogenous IRs. This introduced gene directs the recipient cells to make the IR protein of interest. A second gene is also introduced (co-transfected) into the same cells in conjunction with the IR gene. This second gene, comprising the cDNA for a reporter protein, such as firefly luciferase (LUC), is controlled by an appropriate hormone responsive promoter containing a hormone response element (HRE). This reporter plasmid functions as a reporter for the transcription-modulating activity of the target IR. Thus, the reporter acts as a surrogate for the products (mRNA then protein) normally expressed by a gene under control of the target receptor and its native hormone.
(§4) The co-transfection assay can detect small molecule agonists or antagonists of target IRs. Exposing the transfected cells to an agonist ligand compound increases reporter activity in the transfected cells. This activity can be conveniently measured, e.g., by increasing luciferase production, which reflects compound-dependent, IR-mediated increases in reporter transcription. […] . Increasing concentrations of a suspected antagonist will decrease the reporter signal (e.g., luciferase production). The co-transfection assay is therefore useful to detect both agonists and antagonists of specific IRs. Furthermore, it determines not only whether a compound interacts with a particular IR, but whether this interaction mimics (agonizes) or blocks (antagonizes) the effects of the native regulatory molecules on target gene expression, as well as the specificity and strength of this interaction.
To determine RAR and/or RXR agonist activity of the compounds of the present invention, the CV-1 cells were transiently transfected by calcium phosphate coprecipitation according to the procedure of Berger et al., 41 J. Steroid Biochem. Mol. Biol., 733 (1992) with the following receptor expressing plasmids: pRShRARα: Giguere et al., 330 Nature, 624 (1987); pRShRARβ and pRShRARγ, Ishikawa et al., 4 Mol. Endocrin., 837 (1990); pRShRXRα, Mangelsdorf et al., 345 Nature, 224 (1990); and pRSmRXRβ and pRSmRXRγ, Mangelsdorf et al., 6 Genes & Devel., 329 (1992), the disclosures of which are herein incorporated by reference.

[2] = test system: RARs; test: Co-transfection assay, RAR subfamily; type: cell-based, human
Description: as §1, §2, §3
as §4, with “interaction. […]” for “interaction.”

[3] = test system: ornithine decarboxylase (ODC); test: Ornithine decarboxylase assay: inhibition of TPA induction of ODC; type: cell-based
[4] = test system: RAR and RXR receptors; test: Binding to the RAR and RXR receptors; conditions: relative to ATRA (RAR) and 9-cis (RXR)

- activity on any of the RARs or RXRs (in words) [1]: no, or virtually no, activity
SMILES: COC(/C=C/C=C(\C)c1ccc(C(C)(C)C)cc1)=C/C(=O)O [D, (2E,4E,6E)-3-methoxy-7-(4-t-butylphenyl)octa-2,4,6-trienoic acid]

- activity on any of the RARs or RXRs (in words) [1]: no, or virtually no, activity
SMILES: COc1ccc(/C(C)=C/C=C/C(C)=C/C(=O)O)cc1 [B, (2E, 4E,6E)-3-methyl-7-(4-methoxyphenyl)octa-2,4,6-trienoic acid]

- retinoid activity of ester analogs (in words) [3]: exhibit retinoid activity
SMILES: CCOC(=O)/C=C(C)/C=C/C=C(\C)c1cc(C(C)(C)C)cc(C(C)(C)C)c1 [Compound 7, Ethyl (2E, 4E, 6E)-7-(315-di-t-butylphenyl)-3-methylocta-2,4,6-trienoate]

- activity on any of the RARs or RXRs (in words) [1]: no, or virtually no, activity
SMILES: COc1ccc(/C(C)=C/C=C/C(C)=C/C(=O)O)cc1OC [A, (2E,4E,6E)-3-methyl-7-(3,4-dimethoxyphenyl)octa-2,4,6-trienoic acid]

- potency profile compared to 9-cis retinoic acid (in words) [1]: superior potency profile
- binding compared to ATRA and 9-cis (in words) [4]: equal or superior binding
SMILES: C/C(=C/C=C/C(C)=C/C(=O)O)c1cc(C(C)(C)C)cc(C(C)(C)C)c1 [Compound 10, (2E, 4E, 6Z)-7-(3,5-Di-t-butylphenyl)-3-methylocta-2,4,6-trienoic acid]

The next lines start with the compound.

SMILES: CC(/C=C/C=C1\CCOc2c1cc(C(C)(C)C)cc2C(C)(C)C)=C\C(=O)O [Compound 39, (2E,4E,6E)-6-(6,8,-Di-t-butylchroman-4-ylidene)-3-methylhexa-2,4,6-trienoic acid]
- RAR activity (in words) [2]: extremely potent RAR active compounds

SMILES: CCOC(=O)/C=C(C)/C=C/C=C(/C)c1cc(C(C)(C)C)cc(C(C)(C)C)c1 [Compound 8, Ethyl (2E, 4E, 6Z)-7-(3,5-di-t-butylphenyl)-3-methylocta-2,4,6-trienoate]
- retinoid activity of ester analogs (in words) [3]: exhibit retinoid activity

SMILES: COc1c(C(C)(C)C)cc(/C(C)=C/C=C/C(C)=C/C(=O)O)cc1C(C)(C)C [Compound 47, (2E, 4E, 6E) -3-Methyl-7-(3,5-di-t-butyl-4-methoxyphenyl)octa-2,4,6-trienoic acid]
- RAR activity (in words) [2]: extremely potent RAR active compounds
- RAR isoform selectivity (in words) [2]: selectivity on RARβ and RARγ

SMILES: COc1cc(C)c(/C=C/C=C/C=C(\C)C(=O)O)c(C)c1C [C, (2E,4E,6E)-2-methyl-7-(2,3,6-trimethyl-4-methoxyphenyl)hepta-2,4,6-trienoic acid]
- activity on any of the RARs or RXRs (in words) [1]: no, or virtually no, activity

SMILES: CC(/C=C/C=C(\C)c1cc(C(F)(F)F)cc(C(F)(F)F)c1)=C\C(=O)O [Compound 41, (2E, 4E, 6E)-7-(3,5-Di-trifluoromethylphenyl)-3-methylocta-2,4,6-trienoic acid]
- RAR activity (in words) [2]: extremely potent RAR active compounds

SMILES: C/C(=C/C=C/C(C)=C/C(=O)O)c1cc(C(C)C)cc(C(C)C)c1 [Compound 43, (2E, 4E, 6Z)-7-(3,5-Di-isopropylphenyl)-3-methylocta-2,4,6-trienoic acid]
- potency profile compared to 9-cis retinoic acid (in words) [1]: superior potency profile
